Key:
[1] = cited from earlier work
blood glucose = test: Clinical trial: fasting glucose levels, week 15 versus week 2; type: in vivo, human; details: for effect on glucose levels (conclusion in words): daily or weekly oral dosing, week 15 vs week 2; for number of individuals with lower glucose levels at week 15 as compared to week 2: of ten individuals receiving daily (20 μg) or weekly (140 μg) oral dosing, postmenopausal women, no rigorous statistics
Text: (§1) Each group included five subjects.
(§2) Equimolar quantities of both substances were investigated.
(§3) Each dosage was consumed orally at breakfast.
(§4) Rigorous statistical analysis of the results obtained could not be performed for two reasons. First, upon unblinding the data, it was discovered that there was a difference between the groups' baseline glucose levels, and that this difference continued throughout the study. Secondly, upon examining individual's insulin levels, it was noted that a number of them were recorded as “0.0” in at least one visit.

insulin levels = test: Clinical trial: insulin levels, week 15 versus week 2; type: in vivo, human; details: for number of individuals with higher insulin levels at week 15 than at week 2 / number of individuals with lower insulin level at week 15 than at week 2: only individuals without a "0.0" insulin result: four for Vitamin D3, five for 25-OH D3, daily or weekly dosing
Text: as §1, §2, §3, §4

plasma glucose [2] = test: Mouse study 1: plasma glucose in a model of muscle hypertrophy; type: in vivo, mice
Procedure: In the first study, the effects of 25-OH D3 on blood glucose were determined in a model of muscle hypertrophy. Briefly, two groups of 10 animals were anesthetized and the left hindlimb of the animals was fixed. All animals received an analgesic. A small incision was made through the skin over the gastrocnemius muscle. The complete gastrocnemius muscle and his tendons were exposed. Both heads of the gastrocnemius muscle were carefully dissected from the underlying intact muscles and care was taken not to rupture nerves and vessels. The skin was closed with a silk suture and the animals were returned into the cages. After recovering from anesthesia the animals could move directly without problems in their cages. Animals were treated for three weeks by gavage with 25-OH D3 at a daily dosage of 50 μg/kg and the control group received vehicle. At the end of the study, blood was taken and plasma glucose concentration was analyzed by a Hitachi 912 Automatic Analyser.

plasma glucose [3] = test: Mouse study 2: plasma glucose in a model of muscle atrophy (hindlimb unloading); type: in vivo, mice; details: for change in blood glucose levels versus control with unloading (in words): study 2, Table 2; for Plasma glucose: study 2, hindlimb unloading, 50 μg/kg/bw (combination 50+50) daily by gavage for 3 weeks, control with unloading 12.89, without unloading 12.02
Text: Briefly, nine month old animals were randomized at the beginning of the study into five groups with 10 animals per group. The animals were placed in special cages for duration of three weeks and their tails were suspended, which leads to skeletal muscle atrophy of the unloaded hindlimbs. An additional group without hindlimb unloading was placed in identical cages in order to detect the effects of unloading. All mice were housed separately and had free access to feed and water ad libidum. All animals were treated daily by gavage throughout the 3 weeks of the experiment: • 1. Control group without unloading received vehicle (gelatine) • 2. Control group with unloading received vehicle (gelatine) • 3. […] The 25-OH D3 group with unloading received 25-OH D3 (50 μg/kg/bw) • 5.

| Compound | blood concentration of 25-hydroxyvitamin D after ingestion as a dietary supplement ([1]; ingestion of 250 μg/day Vitamin D) | blood concentration at which hypercalcemia may occur ([1]; in vivo) | effect on glucose levels (conclusion in words) (blood glucose) | number of individuals with lower glucose levels at week 15 as compared to week 2 (blood glucose) | ability to improve insulin sensitivity (conclusion in words) (insulin levels; compared with Vitamin D3) | number of individuals with higher insulin levels at week 15 than at week 2 (insulin levels) | number of individuals with lower insulin level at week 15 than at week 2 (insulin levels) | change in plasma glucose compared to control group (in words) (plasma glucose [2]; study 1, Table 1) | Plasma glucose (plasma glucose [2]; study 1, muscle hypertrophy model, 50 μg/kg daily by gavage for three weeks, vehicle control 15.53) [mmol/L] | change in blood glucose levels versus control with unloading (in words) (plasma glucose [3]) | Plasma glucose (plasma glucose [3]) [mmol/L] |
| --- | --- | --- | --- | --- | --- | --- | --- | --- | --- | --- | --- |
| Vitamin D | about 200 nmol/L |  |  |  |  |  |  |  |  |  |  |
| 25-hydroxyvitamin D |  | greater than 375 nmol/L |  |  |  |  |  |  |  |  |  |
| C=C1CC[C@H](O)C/C1=C/C=C1\CCC[C@]2(C)[C@@H]([C@H](C)CCCC(C)(C)O)CC[C@@H]12 [25-OH D3, 25-hydroxyvitamin D3] |  |  | can lower glucose levels | 6 of 10 | better ability to improve insulin sensitivy than does Vitamin D3 | one | four | decrease in plasma glucose | 14.65 | moderate decrease in blood glucose levels | 12.75 |
| C=C1CC[C@H](O)C/C1=C/C=C1\CCC[C@]2(C)[C@@H]([C@H](C)CCCC(C)C)CC[C@@H]12 [Vitamin D3, cholecalciferol] |  |  | can lower glucose levels | 7 |  | three | one |  |  | moderate decrease in blood glucose levels | 12.69 |
